Patent US4747845A, “Synthetic resin matrix system for the extended delivery of drugs” (priority 1986, dated 1988)

Tests used:
[1] = dog, in vivo
Method: The derived pharmacokinetic parameters included: 1, time for the maximum concentration to be reduced by 1/2 (t-1/2); 2, area under the plasma concentration curve (AUC); 3, maximum plasma concentration (C-max); 4, time to reach C-max (t-max); 5, mean resident time (MRT); and 6, percent of recovery of administered H3 dose in urine in 72 hours (U%).
Here, determination was made of the release characteristics of the DIMAC synthetic resin matrix system embodied with the drug urapidil fumerate (UPD) following oral administration to conscious dogs, in an identical procedure to that described in EXAMPLE 4.
The UPD dose administered in DIMAC matrix was 10 mg/kg, and the same dose was used in the control solution.

[2] = dog, in vivo, po
Method: Approximately 75 uCi of isotopically labelled DTZ or UPD was blended into their respective slurry prior to filling the gelatin capsule. The isotopically labelled compositions were allowed to set-up prior to rejoining the filled upper and lower capsule compartments. Curing proceeded overnight, with animal dosing performed at 8:00 a.m. the following morning. The control DIMAC matrix samples without drug were prepared in an identical manner.
Six conscious dogs, three males and three females, one of each sex in three treatment groups were used in this study. The oral dose of DTZ was 30 mg/kg, while that for UPD was 10 mg/kg.
Blood samples were drawn at 0-time immediately prior to dosing, and at 0.5, 1.0, 2.0, 4.0, 6.0, 8.0, 24, and 32 hours after oral administration of the three test preprations. One ml of plasma, suitably prepared was counted for 5-minutes for level of radioactivity (dpm).

Substance: urapidil fumerate [DIMAC matrix UPD]
- magnitude of delayed and extended duration release indices compared with EXAMPLE 3 [1]: far less
- percent change of t1/2 of DIMAC from solution control [1]: +40%
- statistical significance of change over solution control [1]: statistically significant change in C-max, t-max, MRT, and t-1/2
- percent change of U % (recovery of administered dose in urine in 72 hours) of DIMAC from solution control ([1]; 4320 min): +8%

Substance: urapidil fumerate [UPD]
- percent of dose released from DIMAC matrix during the 8-hour period [2]: at least 50%
- time of peak plasma radioactivity ([2]; 10 mg/kg): 2 h
